Laboratory results published in paper PMC12316308, “Interactions of substrates and phosphinyl containing inhibitors with bacterial and human zinc proteases” (PLOS One, 2025).
Read-outs that look alike come from different tables or passages of the source. Where a SMILES comes first, the peptide text is derived from it. [ ]: non-standard residue; d: D form. The star is where a group is joined. Dnp = O=[N+]([O-])c1ccc(*)c([N+](=O)[O-])c1; Mca = COc1ccc2c(CC(=O)*)cc(=O)oc2c1; Dap = NC[C@H](N)C(=O)O

Key:
[1] = biological target: T1, APMA activated MMP-9 (MMP-9(A)) (Homo sapiens, UniProt P14780); assay: Enzyme inhibition kinetics, fluorogenic substrate ES001; type: biochemical; details: for inhibitory effect on enzymatic activity: 100 μM compound, in words; for Ki: read-out: Ki ± s.d. (converted)
T1 construct: made in house; host or cells: Sf9 and High Five insect cells
Protocol: (§1) The expression of recombinant full length proMMP-9 (rpMMP-9) in Sf9 and High Five insect cells and the purification were performed as previously described. The amount of proMMP-9 was estimated spectrophotometrically at 280 nm using ε280nm = […] [46] for the full length enzyme. Activation of the recombinant proMMP-9 was performed with APMA (auto-activation) and Mag-Trypsin as previously described, while the amount of active MMP-9 was determined by active site titration using galardin, also described previously.
(§2) Determination of reaction velocities. The substrate ES001 was used for APMA activated MMP-9 (MMP-9(A)), Mag-Trypsin activated MMP-9 (MMP-9(MT)) and MMP-14, while the substrate ES005 was used for ALN, PLN and TLN. The reaction velocities/initial rates (v) were determined at 37°C, at an excitation wavelength of 320 nm and an emission wavelength of 405 nm with a slit width of 10 nm using either a Perkin Elmer LS 50 Luminescence spectrometer and the FL WinLab Software Package (Perkin Elmer) or a Clario Star micro plate reader (CLARIOstar® BMG LABTECH).
(§3) The phosphinic compounds were dissolved in 100% DMSO to a final concentration of 10 mM. In all assays, a fixed substrate concentration of 4.0 µM was used in a total volume of 100 µL 0.1 M Hepes pH 7.5, 10 mM CaCl2, 0.005% Brij-35 and 1.0% DMSO. Fixed enzyme concentrations were as follows; 0.05 nM MMP-9(A), 0.05 nM MMP-9(MT), 1.0 nM MMP-14, 1.4 nM ALN, 0.5 nM PLN and 0.21 nM TLN. Time dependent inhibitory experiments, with and without 100 μM of phosphinic compounds, were performed as follows: Compounds were either pre-incubated with proteases for 15 and 30 minutes at room temperature before initiating the enzymatic reaction by adding the substrate, or not pre-incubated, meaning the reaction was initiated by adding the protease to the mixture of substrate and compound. Control tests without the compound present were performed under the same conditions. Reactions were monitored for 30 minutes at 37°C.
(§4) Determination of IC50 and Ki values. […] A fixed substrate concentration and the same enzyme and buffer conditions as described above were used. Enzymes, with or without inhibitors, were either pre-incubated for 30 minutes at room temperature or not pre-incubated, and initial rate assays were performed as described above. Assays were performed using a Clario Star microplate reader. The IC50 values with corresponding s.d. were calculated with GraphPad Prism 5 using equation 1 or 2, depending on the concentration range of the phosphinic compounds.
(§5) Equation 3 describe the relationship between IC50 and Ki values for substrate competitive inhibitors, considering the fixed substrate concentration and the enzyme’s Km value for the substrate: […]

[2] = biological target: T2, Mag-Trypsin activated MMP-9 (MMP-9(MT)) (Homo sapiens, UniProt P14780); assay: as above; type: biochemical; details: for inhibitory effect on enzymatic activity: 100 μM compound, in words; for Ki: read-out: Ki ± s.d. (converted)
T2 construct: made in house; host or cells: Sf9 and High Five insect cells
Protocol: as §1, §2, §3, §4, §5

[3] = biological target: T3, human MT1-MMP/MMP-14 (catalytic domain) (Homo sapiens, UniProt P50281); assay: as above; type: biochemical; details: for inhibitory effect on enzymatic activity: in words; for Ki: read-out: Ki ± s.d. (converted)
T3 construct: human MT1-MMP/MMP-14 (catalytic domain); purchased Calbiochem (San Diego, CA, USA)
Protocol: as §2, §3, §4, §5

pseudolysin (PLN, LasB) = biological target: T4, pseudolysin (PLN, LasB) (Pseudomonas aeruginosa, UniProt P14756); assay: Enzyme inhibition kinetics, fluorogenic substrate ES005; type: biochemical; details: for inhibitory effect on enzymatic activity: 100 μM compound, in words
T4 construct: purchased Calbiochem (San Diego, CA, USA)
Protocol: as §2, §3, §4, §5

thermolysin (TLN) [4] = biological target: T5, thermolysin (TLN) (Bacillus thermoproteolyticus, UniProt P00800); assay: as above; type: biochemical; details: for inhibitory effect on enzymatic activity: 100 μM compound, in words; for Ki: read-out: Ki ± s.d.
T5 construct: purchased Calbiochem (San Diego, CA, USA)
Protocol: as §2, §3, §4, §5

aureolysin (ALN) = biological target: T6, aureolysin (ALN) (Staphylococcus aureus, UniProt P81177); assay: as above; type: biochemical; details: for inhibitory effect on enzymatic activity: 100 μM compound, in words
T6 construct: purchased BioCentrum Ltd (Kraków, Poland)
Protocol: as §2, §3, §4, §5

MMP-9(A) = biological target: T7, MMP-9(A) (Homo sapiens, UniProt P14780); parameters: method as in PMID 33757387; details: 1% DMSO; cited from earlier work
T7 construct: made in house; host or cells: Sf9 and High Five insect cells

MMP-14 = biological target: T8, MMP-14 (Homo sapiens, UniProt P50281); parameters: method as in PMID 33757387; details: 1% DMSO; cited from earlier work
T8 construct: human MT1-MMP/MMP-14 (catalytic domain); purchased Calbiochem (San Diego, CA, USA)

thermolysin (TLN) [5] = biological target: T5, thermolysin (TLN); assay: MALDI-TOF MS analysis of ES005 cleavage; type: biochemical; details: One μM galardin, 100 nM TLN
Protocol: MALDI-TOF MS spectra were recorded for samples containing different enzyme and substrate concentrations at various time points using an Autoflex Speed instrument (Bruker Daltonik GmbH, Leipzig, Germany) equipped with a 355-nm nitrogen laser for desorption and ionization. The ionization matrix, HCCA, was dissolved to 10 mg/mL in a standard solvent (50% MeCN, 47.5% MQ-water, and 2.5% TFA) by vigorous vortexing. Prior to the MALDI run, a main buffer (0.1 M Hepes, pH 7.5, 10 mM CaCl2) was used to dilute TLN to stock concentrations of 1000, 100 and 50 nM, ES005–500 µM, and galardin to 10 µM. All stocks solutions were kept on ice. For the 0 min incubation, 1 µL TLN and 1 µL galardin were preincubated at 37°C in 8 µL of the main buffer for 10 min before adding 1 µL of ES005. For all other time points, 1 µL of ES005 was added to tubes containing 8 µL buffer and 1 µL of TLN at different concentrations, followed by incubation at 37°C. At each timepoint (0, 1, 3, 5, 10, 20, 30, 60, 120 min), 1 µL of galardin was added to stop enzyme activity. After the final incubation, 1 µL aliquots from each timepoint were mixed with an equal volume of HCCA and spotted onto a MALDI plate. […] The resulting mass spectra were analysed using flexAnalysis software (v3.3, Bruker).

T5 sequence (P00800 233-548): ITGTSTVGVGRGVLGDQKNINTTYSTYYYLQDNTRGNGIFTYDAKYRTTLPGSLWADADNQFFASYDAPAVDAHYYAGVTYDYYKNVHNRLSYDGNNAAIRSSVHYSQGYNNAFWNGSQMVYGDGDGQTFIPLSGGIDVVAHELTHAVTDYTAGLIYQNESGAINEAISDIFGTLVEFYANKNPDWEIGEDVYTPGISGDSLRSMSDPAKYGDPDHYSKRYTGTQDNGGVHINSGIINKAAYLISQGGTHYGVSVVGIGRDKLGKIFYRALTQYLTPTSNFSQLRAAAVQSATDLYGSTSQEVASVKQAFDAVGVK
T1 sequence (P14780 107-707 limits assumed): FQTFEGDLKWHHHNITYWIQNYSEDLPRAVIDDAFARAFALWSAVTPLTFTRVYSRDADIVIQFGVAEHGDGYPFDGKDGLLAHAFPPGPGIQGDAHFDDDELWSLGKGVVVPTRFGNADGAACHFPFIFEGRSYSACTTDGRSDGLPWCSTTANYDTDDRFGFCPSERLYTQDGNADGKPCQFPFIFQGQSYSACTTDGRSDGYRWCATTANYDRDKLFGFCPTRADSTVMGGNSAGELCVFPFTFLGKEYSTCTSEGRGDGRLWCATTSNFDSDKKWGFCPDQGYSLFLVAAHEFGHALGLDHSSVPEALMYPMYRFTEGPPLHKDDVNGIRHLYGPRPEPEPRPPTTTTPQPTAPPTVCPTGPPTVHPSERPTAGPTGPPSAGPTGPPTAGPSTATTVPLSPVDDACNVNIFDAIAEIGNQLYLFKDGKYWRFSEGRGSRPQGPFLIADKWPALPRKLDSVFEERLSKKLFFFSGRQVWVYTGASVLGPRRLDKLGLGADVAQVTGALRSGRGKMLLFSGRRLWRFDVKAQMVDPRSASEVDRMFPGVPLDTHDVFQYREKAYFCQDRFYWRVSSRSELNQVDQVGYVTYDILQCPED
T2 sequence (P14780 107-707 limits assumed): as above
T6 sequence (P81177 209-509): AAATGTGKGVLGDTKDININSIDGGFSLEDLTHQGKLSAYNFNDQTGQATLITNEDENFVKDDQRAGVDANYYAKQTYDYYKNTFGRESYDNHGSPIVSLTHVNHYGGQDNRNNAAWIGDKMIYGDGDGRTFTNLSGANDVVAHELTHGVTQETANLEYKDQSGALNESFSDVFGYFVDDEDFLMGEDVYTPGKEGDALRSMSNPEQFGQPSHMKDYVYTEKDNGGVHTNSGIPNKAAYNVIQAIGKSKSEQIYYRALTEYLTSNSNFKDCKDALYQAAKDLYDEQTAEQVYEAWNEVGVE
T4 sequence (P14756 198-498): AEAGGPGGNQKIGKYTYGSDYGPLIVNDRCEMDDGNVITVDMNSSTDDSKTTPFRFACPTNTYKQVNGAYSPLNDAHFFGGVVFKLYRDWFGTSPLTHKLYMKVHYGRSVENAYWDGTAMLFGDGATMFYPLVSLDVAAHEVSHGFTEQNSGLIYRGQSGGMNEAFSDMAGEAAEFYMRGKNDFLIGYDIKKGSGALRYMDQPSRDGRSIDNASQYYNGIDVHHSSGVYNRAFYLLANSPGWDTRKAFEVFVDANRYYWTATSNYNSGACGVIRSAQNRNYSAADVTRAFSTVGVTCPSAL
T7 sequence (P14780 107-707 limits assumed): as the sequence (P14780 107-707 limits assumed) above

Structure (SMILES)	inhibitory effect on enzymatic activity ([1]; MMP-9(A))	Ki [1] [µM]	inhibitory effect on enzymatic activity ([2]; MMP-9(MT))	Ki [2] [µM]	inhibitory effect on enzymatic activity ([3]; MMP-14, 100 μM compound)	Ki [3] [µM]	Ki (pseudolysin (PLN, LasB)) [µM]	inhibitory effect on enzymatic activity (pseudolysin (PLN, LasB); PLN)	inhibitory effect on enzymatic activity (thermolysin (TLN) [4]; TLN)	Ki (thermolysin (TLN) [4]) [µM]	Ki (aureolysin (ALN)) [µM]	inhibitory effect on enzymatic activity (aureolysin (ALN); ALN)	other results
CC(NC(=O)OCc1ccccc1)P(=O)(O)CC(Cc1ccccc1)C(=O)O (stereo not shown) [H-4]	weak or no inhibition	≥ 100	weak or no inhibition	≥ 100	weak or no inhibition	≥ 100	≥ 100	weak or no inhibition	weak or no inhibition	≥ 100	≥ 100	weak or no inhibition	–
COc1ccc2c(CC(=O)N3CCC[C@H]3C(=O)N[C@@H](CC(C)C)C(=O)NCC(=O)N[C@@H](CC(C)C)C(=O)N[C@@H](CNc3ccc([N+](=O)[O-])cc3[N+](=O)[O-])C(=O)N[C@@H](C)C(=O)N[C@@H](CCCNC(=N)N)C(N)=O)cc(=O)oc2c1 [ES001, Mca-Pro-Leu-Gly-Leu-Dpa-Ala-Arg-NH2] (Mca-PLGL[Dap](Dnp)AR-NH2)	–	–	–	–	–	–	–	–	–	–	–	–	Km (MMP-9(A)): 4 ± 1 µM; Km (MMP-14): 4.9 ± 0.4 µM
CC(=O)NC(CC(C)C)C(=O)CC(C)P(=O)(O)CC(Cc1ccccc1)C(=O)O (stereo not shown) [H-3]	weak or no inhibition	–	weak or no inhibition	–	weak or no inhibition	–	–	weak or no inhibition	weak or no inhibition	–	–	weak or no inhibition	Ki ([1]; MMP-9(A), substrate ES001 4.0 µM, 0.1 M Hepes pH 7.5, 37°C, 1.0% DMSO, Ki from IC50 (Eqn. 3)): ≥ 100 µM; Ki ([2]; MMP-9(MT), substrate ES001 4.0 µM, 0.1 M Hepes pH 7.5, 37°C, 1.0% DMSO, Ki from IC50 (Eqn. 3)): ≥ 100 µM; pre-incubation time after which inhibition stabilizes (slow binding) ([3]; MMP-14, 100 μM compound, pre-incubation at room temperature): 15 min; Ki ([3]; MMP-14, substrate ES001 4.0 µM, 0.1 M Hepes pH 7.5, 37°C, 1.0% DMSO, Ki from IC50 (Eqn. 3)): ≥ 100 µM; Ki (pseudolysin (PLN, LasB); read-out: Ki ± s.d., PLN, substrate ES005 4.0 µM, 0.1 M Hepes pH 7.5, 37°C, 1.0% DMSO, Ki from IC50 (Eqn. 3)): ≥ 100 µM; Ki (thermolysin (TLN) [4]; TLN, substrate ES005 4.0 µM, 0.1 M Hepes pH 7.5, 37°C, 1.0% DMSO, Ki from IC50 (Eqn. 3)): ≥ 100 µM; Ki (aureolysin (ALN); read-out: Ki ± s.d., ALN, substrate ES005 4.0 µM, 0.1 M Hepes pH 7.5, 37°C, 1.0% DMSO, Ki from IC50 (Eqn. 3)): ≥ 100 µM
CCOC(=O)C(CO)CP(=O)(O)C(Cc1ccccc1)NC(=O)OCc1ccccc1 (stereo not shown) [H-5]	weak or no inhibition	≥ 100	weak or no inhibition	≥ 100	weak or no inhibition	≥ 100	≥ 100	weak or no inhibition	weak or no inhibition	≥ 100	≥ 100	weak or no inhibition	–
CNC(=O)[C@H](Cc1c[nH]c2ccccc12)NC(=O)[C@@H](CC(=O)NO)CC(C)C [galardin]	–	–	–	–	–	–	–	–	–	–	–	–	inhibition of TLN (stopping of substrate cleavage) (thermolysin (TLN) [5]): not sufficient to completely inhibit
